Read-outs that look alike come from different tables or passages of the source.
Experiments:
[1] = 4-week repeat-dose toxicity/TK study in dogs; type: in vivo, beagle dogs; conditions: for AUC(0-t) / Cmax / Tmax: beagle, dog, plasma, po
Procedure: The TK of ZB716 was investigated in a 4-week repeat-dose toxicity study in dogs. Groups of dogs (n = 3/sex/group) were orally administered ZB716 (5% EtOH, 15% PG, 5% Solutol, and 75% of 40% HP-β-CD in DI water) at dose levels of 25, 100, and 200 mg/kg/day for 4 weeks. The plasma concentration of ZB716 was measured at various times up through to 24 h post-dose on days 1 and 28. […] The lower exposure in females given 200 mg/kg/day on day 1 was likely due to emesis noted in all females in this group.
Four-to-six-week-old Sprague Dawley rats (Crl: CD (SD)) (SPF/VAF) were purchased from Beijing Vital River Laboratory Animal Technology, Co. Ltd.). Six-month-old beagle dogs were purchased from Beijing Marshall Biotechnology Co. Ltd. Animals were quarantined/acclimated for 2–6 weeks prior to dose initiation. Both Sprague Dawley rats and beagle dogs were given oral administration of ZB716 (20% PG, 5% Solutol, and 75% of 40% HP-β-CD in water) at different dose levels. After treatment with the test articles, whole blood was collected from each study animal by puncture of the tail vein (0.4 mL of whole blood from rats) and/or the peripheral vein (0.6 mL of whole blood from dogs) into tubes containing K2EDTA at each timepoint: pre-dose, and 0.5, 1, 2, 4, 8, and 24 h post-dose. The plasma samples were divided into 2 aliquots (approximately equal in volume) and stored frozen at −75 ± 15 °C within 2 h of the collection until analysis at Pharmaron, China.
The stock solution of ZB716 (5.0 mg/mL) and ZB716-d6 (1 mg/mL) in ACN:DI Water = 1:1 was prepared and stored at −20 ± 5 °C. The desired serial concentrations of working reference analyte solutions were achieved by diluting a stock analyte solution with 50% acetonitrile (0.1% formic acid) in water solution. The bioanalytical LC–MS/MS method was validated for quantitative determination of ZB716 in Sprague Dawley rat plasma and beagle dog plasma, with acceptable selectivity, sensitivity, calibration curve, precision, and accuracy. This method is applicable for the determination of ZB716 in Sprague Dawley rat plasma and beagle dog plasma, with a lower limit of quantification of 20.0 ng/mL, and an upper limit of quantification of 10,000 ng/mL.
Five microliters of diluted supernatant was injected into the LC–MS/MS system (Shimadzu LC30AD HPLC system with a SynergiTM 4 μm Fusion-RP 80 Å (50 × 2 mm) column using gradient elution and a Triple Quad 5500 mass spectrometer) for quantitative analysis. The mobile phases used were 0.1% formic acid in deionized water and 0.1% formic acid in acetonitrile. The pharmacokinetic parameters T1/2 (the biological half-life), Cmax (maximal concentration), Tmax (time at which Cmax is observed), and AUC (area under the plasma concentration–time curve) were calculated from the plasma concentration versus time data using WinNonlin (Phoenix^TM, version 8.1, Mountain View, CA, USA). All PK studies were conducted by Pharmaron in Beijing, China.

[2] = Bidirectional permeability across Caco-2 cell monolayers; type: in vitro ADME; conditions: human; for recovery at 120 min, 1 μM: Caco-2, Caco-2, 1 μM; for recovery at 120 min, 5 μM: Caco-2, Caco-2, 5 μM; for recovery at 120 min, 15 μM: Caco-2, Caco-2, 15 μM
Procedure: (§1) The bidirectional permeability and absorption mechanism of ZB716 was evaluated across Caco-2 cell monolayers.
(§2) The apical-to-basolateral (A–B) and basolateral-to-apical (B–A) transport of ZB716 in HBSS (25 mM HEPES) with 1% BSA was measured across Caco-2 cell monolayers. […] All incubations were performed in triplicate, and the integrity of the cell monolayers was confirmed using the marker Lucifer yellow.
(§3) The slope, k, was determined by linear
(§4) using the following equation: […]
(§5) 1.4 Intestinal Mucosal Permeation of ZB716
(§6) Papp= VAArea х timeх ሾdrugሿreceiverሾdrugሿinitial,donor

Caco-2 cell monolayers = assay: as above; type: in vitro ADME; conditions: Caco-2, according to the results at 15 μM
Procedure: as §1, §2, §3, §4, §5, §6

[3] = female, 25 mg/kg/day, day 1, PO 25 mg/kg/day, F
[4] = female, 25 mg/kg/day, day 28, PO 25 mg/kg/day, F
[5] = female, 100 mg/kg/day, day 1, PO 100 mg/kg/day, F
[6] = female, 100 mg/kg/day, day 28, PO 100 mg/kg/day, F
[7] = female, 200 mg/kg/day, day 1, PO 200 mg/kg/day, F
[8] = female, 200 mg/kg/day, day 28, PO 200 mg/kg/day, F
[9] = male, 25 mg/kg/day, day 1, PO 25 mg/kg/day, M
[10] = male, 25 mg/kg/day, day 28, PO 25 mg/kg/day, M
[11] = male, 100 mg/kg/day, day 1, PO 100 mg/kg/day, M
[12] = male, 100 mg/kg/day, day 28, PO 100 mg/kg/day, M
[13] = male, 200 mg/kg/day, day 1, PO 200 mg/kg/day, M
[14] = male, 200 mg/kg/day, day 28, PO 200 mg/kg/day, M

C[C@]12CC[C@@H]3c4ccc(B(O)O)cc4C[C@@H](CCCCCCCCC[S+]([O-])CCCC(F)(F)C(F)(F)F)[C@H]3[C@@H]1CC[C@@H]2O (some centres unmarked) [ZB716, fulvestrant-3-boronic acid]
AUC(0-t) [1, 3]: 3880 ng·h/mL
Cmax [1, 3]: 772 ng/mL
Tmax [1, 3]: 1 h
AUC(0-t) [1, 4]: 8000 ng·h/mL
Cmax [1, 4]: 1590 ng/mL
Tmax [1, 4]: 1 h
AUC(0-t) [1, 5]: 4490 ng·h/mL
Cmax [1, 5]: 997 ng/mL
Tmax [1, 5]: 1 h
AUC(0-t) [1, 6]: 9650 ng·h/mL
Cmax [1, 6]: 1870 ng/mL
Tmax [1, 6]: 2 h
AUC(0-t) [1, 7]: 2720 ng·h/mL
Cmax [1, 7]: 583 ng/mL
Tmax [1, 7]: 2 h
AUC(0-t) [1, 8]: 14900 ng·h/mL
Cmax [1, 8]: 1810 ng/mL
Tmax [1, 8]: 2 h
AUC(0-t) [1, 9]: 1980 ng·h/mL
Cmax [1, 9]: 691 ng/mL
Tmax [1, 9]: 0.5 h
AUC(0-t) [1, 10]: 4330 ng·h/mL
Cmax [1, 10]: 1390 ng/mL
Tmax [1, 10]: 1 h
AUC(0-t) [1, 11]: 4570 ng·h/mL
Cmax [1, 11]: 1400 ng/mL
Tmax [1, 11]: 1 h
AUC(0-t) [1, 12]: 12400 ng·h/mL
Cmax [1, 12]: 3340 ng/mL
Tmax [1, 12]: 2 h
AUC(0-t) [1, 13]: 7880 ng·h/mL
Cmax [1, 13]: 1040 ng/mL
Tmax [1, 13]: 2 h
AUC(0-t) [1, 14]: 11000 ng·h/mL
Cmax [1, 14]: 2130 ng/mL
Tmax [1, 14]: 2 h
tolerability ([1]; oral once daily, doses up to 200 mg/kg/day for 28 consecutive days): tolerated
recovery at 120 min, 1 μM ([2]; read-out: Recovery A to B): < 66.6%
recovery at 120 min, 1 μM ([2]; read-out: Recovery B to A): 66.5 ± 0.7%
recovery at 120 min, 5 μM ([2]; read-out: Recovery A to B): < 67%
recovery at 120 min, 5 μM ([2]; read-out: Recovery B to A): 73.7 ± 1.5%
recovery at 120 min, 15 μM ([2]; read-out: Recovery A to B): 75.7 ± 2%
recovery at 120 min, 15 μM ([2]; read-out: Recovery B to A): 84.2 ± 4.8%
Papp A→B at 120 min, 1 μM ([2]; Caco-2, 1 μM): < 0.778 ×10⁻⁶ cm/s
Papp B→A at 120 min, 1 μM ([2]; Caco-2, 1 μM): 0.747 ± 0.0316 ×10⁻⁶ cm/s
efflux ratio at 120 min, 1 μM ([2]; Caco-2, 1 μM): > 0.935
Papp A→B at 120 min, 5 μM ([2]; Caco-2, 5 μM): < 0.159 ×10⁻⁶ cm/s
Papp B→A at 120 min, 5 μM ([2]; Caco-2, 5 μM): 0.82 ± 0.127 ×10⁻⁶ cm/s
efflux ratio at 120 min, 5 μM ([2]; Caco-2, 5 μM): > 4.55
Papp A→B at 120 min, 15 μM ([2]; Caco-2, 15 μM): 0.188 ± 0.021 ×10⁻⁶ cm/s
Papp B→A at 120 min, 15 μM ([2]; Caco-2, 15 μM): 0.534 ± 0.028 ×10⁻⁶ cm/s
efflux ratio at 120 min, 15 μM ([2]; Caco-2, 15 μM): 2.87 ± 0.49
permeability class (Caco-2 cell monolayers): low permeability
